According to ChEMBL document CHEMBL4152249, “Alkoxyphenylthiazoles with broad-spectrum activity against multidrug-resistant gram-positive bacterial pathogens” (Eur J Med Chem, 2018):
Values after ≈ are worked out from the molar mass of the structure shown. Active and inactive are the calls of the source. The calls are words filed in the database; no cut-off is given here.

Assays:
[1] = system: Staphylococcus aureus; assay: Antibacterial activity against methicillin-resistant Staphylococcus aureus 2658 RCMB after 20 hrs by broth microdilution assay; type: functional
[2] = system: Staphylococcus aureus; assay: Antibacterial activity against Staphylococcus aureus after 20 hrs by broth microdilution assay; type: functional
[3] = system: Staphylococcus aureus; assay: Bactericidal activity against methicillin-sensitive Staphylococcus aureus NRS107 incubated for 20 hrs followed by re-plating on tryptic soy agar plates at 37 degC for 18 hrs by broth microdilution assay; type: functional
[4] = system: Staphylococcus aureus; assay: Antibacterial activity against methicillin-resistant Staphylococcus aureus after 20 hrs by broth microdilution assay; type: functional
[5] = system: Staphylococcus aureus; assay: Bactericidal activity against linezolid-resistant Staphylococcus aureus NRS119 incubated for 20 hrs followed by re-plating on tryptic soy agar plates at 37 degC for 18 hrs by broth microdilution assay; type: functional
[6] = system: Staphylococcus aureus; assay: Bactericidal activity against Staphylococcus aureus USA400 NRS123 incubated for 20 hrs followed by re-plating on tryptic soy agar plates at 37 degC for 18 hrs by broth microdilution assay; type: functional
[7] = system: Staphylococcus aureus; assay: Bactericidal activity against Staphylococcus aureus USA300 NRS384 incubated for 20 hrs followed by re-plating on tryptic soy agar plates at 37 degC for 18 hrs by broth microdilution assay; type: functional
[8] = system: Staphylococcus aureus; assay: Antibacterial activity against methicillin-resistant Staphylococcus aureus NRS385 after 20 hrs by broth microdilution assay; type: functional; details: NRS385, 20 h
[9] = system: Staphylococcus aureus; assay: Bactericidal activity against methicillin-resistant Staphylococcus aureus NRS385 incubated for 20 hrs followed by re-plating on tryptic soy agar plates at 37 degC for 18 hrs by broth microdilution assay; type: functional
[10] = system: Staphylococcus aureus; assay: Antibacterial activity against methicillin-resistant Staphylococcus aureus NRS386 after 20 hrs by broth microdilution assay; type: functional; details: NRS386, 20 h
[11] = system: Staphylococcus aureus; assay: Bactericidal activity against methicillin-resistant Staphylococcus aureus NRS386 incubated for 20 hrs followed by re-plating on tryptic soy agar plates at 37 degC for 18 hrs by broth microdilution assay; type: functional
[12] = system: Staphylococcus aureus; assay: Antibacterial activity against vancomycin-resistant Staphylococcus aureus VRSA10 after 20 hrs by broth microdilution assay; type: functional; details: VRSA10, 20 h
[13] = system: Staphylococcus aureus; assay: Bactericidal activity against vancomycin-resistant Staphylococcus aureus VRSA10 incubated for 20 hrs followed by re-plating on tryptic soy agar plates at 37 degC for 18 hrs by broth microdilution assay; type: functional
[14] = system: Staphylococcus aureus; assay: Antibacterial activity against vancomycin-resistant Staphylococcus aureus VRSA12 after 20 hrs by broth microdilution assay; type: functional; details: VRSA12, 20 h
[15] = system: Staphylococcus aureus; assay: Bactericidal activity against vancomycin-resistant Staphylococcus aureus VRSA12 incubated for 20 hrs followed by re-plating on tryptic soy agar plates at 37 degC for 18 hrs by broth microdilution assay; type: functional
[16] = system: Staphylococcus epidermidis; assay: Antibacterial activity against methicillin-resistant Staphylococcus epidermidis NRS101 after 20 hrs by broth microdilution assay; type: functional; details: NRS101, 20 h
[17] = system: Staphylococcus epidermidis; assay: Bactericidal activity against methicillin-resistant Staphylococcus epidermidis NRS101 incubated for 20 hrs followed by re-plating on tryptic soy agar plates at 37 degC for 18 hrs by broth microdilution assay; type: functional
[18] = system: Enterococcus faecalis; assay: Antibacterial activity against vancomycin-resistant Enterococcus faecalis ATCC 51299 after 20 hrs by broth microdilution assay; type: functional; details: ATCC 51299, 20 h
[19] = system: Enterococcus faecalis; assay: Bactericidal activity against vancomycin-resistant Enterococcus faecalis ATCC 51299 incubated for 20 hrs followed by re-plating on tryptic soy agar plates at 37 degC for 18 hrs by broth microdilution assay; type: functional
[20] = system: Enterococcus faecium; assay: Antibacterial activity against vancomycin-resistant Enterococcus faecium ATCC 700221 after 20 hrs by broth microdilution assay; type: functional; details: ATCC 700221, 20 h
[21] = system: Enterococcus faecium; assay: Bactericidal activity against vancomycin-resistant Enterococcus faecium ATCC 700221 incubated for 20 hrs followed by re-plating on tryptic soy agar plates at 37 degC for 18 hrs by broth microdilution assay; type: functional
[22] = system: Listeria monocytogenes; assay: Antibacterial activity against Listeria monocytogenes ATCC 19111 after 20 hrs by broth microdilution assay; type: functional; details: ATCC 19111, 20 h
[23] = system: Listeria monocytogenes; assay: Bactericidal activity against Listeria monocytogenes ATCC 19111 incubated for 20 hrs followed by re-plating on tryptic soy agar plates at 37 degC for 18 hrs by broth microdilution assay; type: functional
[24] = system: Streptococcus pneumoniae; assay: Antibacterial activity against cephalosporin-resistant Streptococcus pneumoniae ATCC 51916 after 20 hrs by broth microdilution assay; type: functional; details: ATCC 51916, 20 h
[25] = system: Streptococcus pneumoniae; assay: Bactericidal activity against cephalosporin-resistant Streptococcus pneumoniae ATCC 51916 incubated for 20 hrs followed by re-plating on tryptic soy agar plates at 37 degC for 18 hrs by broth microdilution assay; type: functional
[26] = system: Streptococcus pneumoniae; assay: Antibacterial activity against methicillin-resistant Streptococcus pneumoniae ATCC 700677 after 20 hrs by broth microdilution assay; type: functional; details: ATCC 700677, 20 h
[27] = system: Streptococcus pneumoniae; assay: Bactericidal activity against methicillin-resistant Streptococcus pneumoniae ATCC 700677 incubated for 20 hrs followed by re-plating on tryptic soy agar plates at 37 degC for 18 hrs by broth microdilution assay; type: functional
[28] = system: Streptococcus pneumoniae; assay: Ratio of MBC to MIC for methicillin-resistant Streptococcus pneumoniae ATCC 700677; type: functional
[29] = system: Staphylococcus aureus; assay: Bactericidal activity against Staphylococcus aureus USA400 assessed as reduction in colony forming unit at 3 to 6 times MIC treated for 2 hrs followed by re-plating on tryptic soy agar plates at 37 degC for 18 to 20 hrs by broth microdilution assay; type: functional; set-up: scale not given: the % may be the effect or the level left
[30] = system: Staphylococcus aureus; assay: Antibacterial activity against methicillin-resistant Staphylococcus aureus USA400 NRS123 after 14 passages over 2 weeks by broth microdilution method; type: functional, organism-based
[31] = system: Caco-2; assay: Cytotoxicity against human Caco2 cells assessed as effect on cell viability up to 64 ug/ml after 2 hrs by MTS assay; type: cell-based; details: caco-2, 2 h
[32] = Selectivity index, ratio of compound effect for human Caco2 cells at maximum non-toxic concentration concentration to MIC for methicillin-resistant Staphylococcus epidermidis NRS101; type: toxicity; details: Caco-2 cells, read-out: Selectivity Index
[33] = Selectivity index, ratio of compound effect for human Caco2 cells at maximum non-toxic concentration concentration to MIC for vancomycin-resistant Enterococcus faecalis ATCC 51299; type: toxicity; details: Caco-2 cells, read-out: Selectivity Index
[34] = Selectivity index, ratio of compound effect for human Caco2 cells at maximum non-toxic concentration concentration to MIC for vancomycin-resistant Enterococcus faecium ATCC 700221; type: toxicity; details: Caco-2 cells, read-out: Selectivity Index
[35] = Selectivity index, ratio of compound effect for human Caco2 cells at maximum non-toxic concentration concentration to MIC for Listeria monocytogenes ATCC 19111; type: toxicity; details: Caco-2 cells, read-out: Selectivity Index
[36] = Selectivity index, ratio of compound effect for human Caco2 cells at maximum non-toxic concentration concentration to MIC for cephalosporin-resistant Streptococcus pneumoniae ATCC 51916; type: toxicity; details: Caco-2 cells, read-out: Selectivity Index
[37] = Selectivity index, ratio of compound effect for human Caco2 cells at maximum non-toxic concentration concentration to MIC for methicillin-resistant Streptococcus pneumoniae ATCC 700677; type: toxicity; details: Caco-2 cells, read-out: Selectivity Index
[38] = Half life in Sprague-Dawley rat at 5 uM, iv administered as single bolus dose by LC-MS/MS analysis; type: ADME, organism-based; details: in vivo
[39] = Clearance in Sprague-Dawley rat at 5 uM, iv administered as single bolus dose by LC-MS/MS analysis; type: ADME, organism-based; details: in vivo
[40] = Terminal phase volume of distribution at […] in Sprague-Dawley rat at 5 uM, iv administered as single bolus dose by LC-MS/MS analysis; type: ADME, organism-based; details: in vivo, read-out: Vbeta
[41] = Volume of distribution at steady state in Sprague-Dawley rat at 5 uM, iv administered as single bolus dose by LC-MS/MS analysis; type: ADME, organism-based; details: in vivo, read-out: Vdss
[42] = AUC in Sprague-Dawley rat at 5 uM, iv administered as single bolus dose by LC-MS/MS analysis; type: ADME, organism-based; details: in vivo

With CCCCCCCOc1ccc(-c2nc(C)c(-c3ccnc(NC(=N)N(C)C)n3)s2)cc1 the MIC [1] was 1.56 mg/L (≈ 3.45 µM), the MIC [2] was 4 mg/L (≈ 8.84 µM) and the MBC [3] was 4 mg/L (≈ 8.84 µM). It also gave an MIC [4] of 4 to 8 mg/L (≈ 8.84 to 17.7 µM), an MBC [5] of 8 mg/L (≈ 17.7 µM) and an MBC [6] of 8 mg/L (≈ 17.7 µM). For the same compound, the MBC [7] was 4 mg/L (≈ 8.84 µM), the MIC [8] was 8 mg/L (≈ 17.7 µM) and the MBC [9] was 8 mg/L (≈ 17.7 µM). The MIC [10] was 4 mg/L (≈ 8.84 µM), the MBC [11] was 4 mg/L (≈ 8.84 µM) and the MIC [12] was 4 mg/L (≈ 8.84 µM). The MBC [13] was 4 mg/L (≈ 8.84 µM), the MIC [14] was 4 mg/L (≈ 8.84 µM) and the MBC [15] was 4 mg/L (≈ 8.84 µM). The MIC [16] was 4 mg/L (≈ 8.84 µM), the MBC [17] was 4 mg/L (≈ 8.84 µM) and the MIC [18] was 8 mg/L (≈ 17.7 µM). It also gave an MBC [19] of 8 mg/L (≈ 17.7 µM), an MIC [20] of 8 mg/L (≈ 17.7 µM) and an MBC [21] of 8 mg/L (≈ 17.7 µM). For the same compound, the MIC [22] was 4 mg/L (≈ 8.84 µM), the MBC [23] was 4 mg/L (≈ 8.84 µM) and the MIC [24] was 8 mg/L (≈ 17.7 µM). The MBC [25] was 8 mg/L (≈ 17.7 µM), the MIC [26] was 4 mg/L (≈ 8.84 µM) and the MBC [27] was 8 mg/L (≈ 17.7 µM). For the same compound, the Ratio [28] was 1, the Activity [29] was 100% and the Activity [30] was “Active”. The Activity [31] was “Non-Toxic”, the selectivity ratio [32] was 7 to 82 and the selectivity ratio [33] was 7 to 82. For the same compound, the selectivity ratio [34] was 7 to 82, the selectivity ratio [35] was 7 to 82 and the selectivity ratio [36] was 7 to 82. The selectivity ratio [37] was 7 to 82, the half-life at 5 µM [38] was 4 h and the clearance at 5 µM [39] was 29.2 mL/min. For the same compound, the Vd at 5 µM [40] was 10.4 L, the Vd at 5 µM [41] was 4.36 L and the AUC at 5 µM [42] was 1.14 µg·h/mL.
